# In PubChem BioAssay AID252 (DTP/NCI, 2004):
# Several values for one entry are separate records, joined by “and”; a condition that tells them apart may be missing. Equal entries are not always repeated. Toxic doses and inconclusive results are not listed.
# Test system: BDF1 mice, intracerebral L1210 leukemia, survival T/C
# Experiment: NCI In Vivo Anticancer Drug Screen. Data for tumor model L1210 Leukemia (intracerebral) in B6D2F1 (BDF1) mice
# Conditions: higher = longer survival
# Method in brief: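 Antitumour effect is judged in mice with transplanted tumour by comparing survival of treated (T) against vehicle-dosed (C) groups as T/C.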
compound,measurement,setting,value
CN(C)CC(=O)c1ccc(O)c(O)c1,T/C,"endpoint: median survival time, dose: 100.0 mg/kg/injection, schedule: Q01DX005 (ip), vehicle: saline",101 % of control
same,T/C,"endpoint: median survival time, dose: 200.0 mg/kg/injection, schedule: Q01DX005 (ip), vehicle: saline",101 % of control
same,T/C,"endpoint: median survival time, dose: 400.0 mg/kg/injection, schedule: Q01DX005 (ip), vehicle: saline",98 % of control
same,T/C,"endpoint: median survival time, dose: 800.0 mg/kg/injection, schedule: Q01DX005 (ip), vehicle: saline",113 % of control
O=NN(CCCl)C(=O)Nc1ccc(CC(=O)O)cc1,T/C,"endpoint: mean survival time, dose: 6.0 mg/kg/injection, schedule: Q01DX001 (ip), vehicle: carboxymethylcellulose (CMC)",104 % of control
same,T/C,"endpoint: mean survival time, dose: 9.0 mg/kg/injection, schedule: Q01DX001 (ip), vehicle: carboxymethylcellulose (CMC)",106 % of control
same,T/C,"endpoint: mean survival time, dose: 13.0 mg/kg/injection, schedule: Q01DX001 (ip), vehicle: carboxymethylcellulose (CMC)",110 % of control
same,T/C,"endpoint: mean survival time, dose: 26.0 mg/kg/injection, schedule: Q01DX001 (ip), vehicle: carboxymethylcellulose (CMC)",104 % of control
C=CC(CN1CC1)OC(C)=O (stereo not drawn),T/C,"endpoint: mean survival time, dose: 2.5 mg/kg/injection, schedule: Q01DX Z (ip), vehicle: saline",119 % of control
same,T/C,"endpoint: mean survival time, dose: 11.0 mg/kg/injection, schedule: Q01DX001 (ip), vehicle: saline",113 % of control and 117 % of control
same,T/C,"endpoint: mean survival time, dose: 17.0 mg/kg/injection, schedule: Q01DX001 (ip), vehicle: saline",117 % of control
same,T/C,"endpoint: mean survival time, dose: 25.0 mg/kg/injection, schedule: Q01DX001 (ip), vehicle: saline",119 % of control
same,T/C,"endpoint: mean survival time, dose: 25.0 mg/kg/injection, schedule: Q01DX Z (ip), vehicle: saline",120 % of control
same,T/C,"endpoint: mean survival time, dose: 30.0 mg/kg/injection, schedule: Q01DX Z (ip), vehicle: saline",105 % of control
CCCOC1=C(N2CC2)C(=O)C(OCCC)=C(N2CC2)C1=O,T/C,"endpoint: mean survival time, dose: 0.25 mg/kg/injection, schedule: Q01DX009 (ip), vehicle: saline",105 % of control
same,T/C,"endpoint: mean survival time, dose: 0.5 mg/kg/injection, schedule: Q01DX005 (ip), vehicle: saline",97 % of control
same,T/C,"endpoint: mean survival time, dose: 0.5 mg/kg/injection, schedule: Q01DX009 (ip), vehicle: saline",113 % of control
same,T/C,"endpoint: mean survival time, dose: 1.0 mg/kg/injection, schedule: Q01DX005 (ip), vehicle: saline",101 % of control
same,T/C,"endpoint: mean survival time, dose: 1.0 mg/kg/injection, schedule: Q01DX009 (ip), vehicle: saline",104 % of control and 302 % of control
same,T/C,"endpoint: mean survival time, dose: 2.0 mg/kg/injection, schedule: Q01DX005 (ip), vehicle: saline",108 % of control
same,T/C,"endpoint: mean survival time, dose: 2.0 mg/kg/injection, schedule: Q01DX009 (ip), vehicle: saline",111 % of control and 117 % of control
same,T/C,"endpoint: mean survival time, dose: 4.0 mg/kg/injection, schedule: Q01DX005 (ip), vehicle: saline",106 % of control
same,T/C,"endpoint: mean survival time, dose: 4.0 mg/kg/injection, schedule: Q01DX009 (ip), vehicle: saline",117 % of control
